The values below come from ChEMBL document CHEMBL4420076, “Amylin and calcitonin receptor agonist” (2017).

Peptide text beside a SMILES is read from it. * marks the point of attachment. C18 diacid = O=C(O)CCCCCCCCCCCCCCCCC(=O)* Bounds are passed on as bounds.

As usually defined, the EC50 is the concentration needed to bring the measured effect to its halfway point. As usually defined, the solubility is the dissolved amount per volume that the medium holds.

Data set [1] concerns the target T1, Amylin receptor AMY3; CALCR/RAMP3 (Homo sapiens, UniProt O60896+P30988).
T1 sequence (P30988 whole entry): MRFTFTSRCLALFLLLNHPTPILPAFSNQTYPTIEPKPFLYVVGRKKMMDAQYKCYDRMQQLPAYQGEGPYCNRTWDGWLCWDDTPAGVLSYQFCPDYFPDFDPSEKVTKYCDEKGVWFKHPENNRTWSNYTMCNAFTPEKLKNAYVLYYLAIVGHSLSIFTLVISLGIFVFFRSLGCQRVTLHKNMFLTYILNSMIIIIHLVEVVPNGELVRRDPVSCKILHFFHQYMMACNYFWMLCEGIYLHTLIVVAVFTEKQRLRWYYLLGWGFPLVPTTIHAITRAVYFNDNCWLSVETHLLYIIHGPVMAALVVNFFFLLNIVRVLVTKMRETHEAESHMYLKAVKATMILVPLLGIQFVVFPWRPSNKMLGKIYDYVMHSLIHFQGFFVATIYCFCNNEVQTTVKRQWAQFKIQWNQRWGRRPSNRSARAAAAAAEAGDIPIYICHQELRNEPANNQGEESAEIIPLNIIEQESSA
T1 sequence (O60896 whole entry): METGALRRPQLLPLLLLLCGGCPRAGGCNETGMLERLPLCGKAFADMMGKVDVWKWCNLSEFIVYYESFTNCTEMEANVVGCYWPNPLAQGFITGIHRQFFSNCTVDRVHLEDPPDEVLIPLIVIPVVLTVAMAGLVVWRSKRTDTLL
In words: Agonist activity at human amylin receptor expressed in BHK570 cells co-expressing RAMP3 assessed as increase in intracellular cAMP concentration incubated for 3 hrs in absence of albumin by CRE luciferase reporter gene assay. It counts as functional, cell-based. (In general: In a reporter assay the amount or activity of a reporter protein is the signal.)

Data set [2] addresses T2, Calcitonin receptor (Homo sapiens, UniProt P30988).
T2 sequence (P30988 whole entry): T1 sequence (P30988 whole entry)
In words: Agonist activity at human calcitonin receptor expressed in BHK570 cells assessed as increase in intracellular cAMP concentration incubated for 3 hrs in absence of albumin by CRE luciferase reporter gene assay. The data set is classed as functional, cell-based.

Data set [3] is described as follows: Solubility in 100 mM glycylglycine buffer at pH 3.0 incubated for 18 hrs by UPLC analysis. The data set is classed as physicochemical.
Data set [4] is described as follows: Solubility in 100 mM glycylglycine buffer at pH 4.0 incubated for 18 hrs by UPLC analysis. It counts as physicochemical.
A short description of data set [5]: Solubility in 100 mM bistrispropane buffer at pH 6.0 incubated for 18 hrs by UPLC analysis. The data set is classed as physicochemical.
Data set [6] in a line: Solubility in 100 mM glycylglycine buffer at pH 5.0 incubated for 18 hrs by UPLC analysis. The data set is classed as physicochemical.
Data set [7] is described as follows: Solubility in 100 mM bistrispropane buffer at pH 6.5 incubated for 18 hrs by UPLC analysis. The data set is classed as physicochemical.
Data set [8] in a line: Solubility in 100 mM bistrispropane buffer at pH 7.0 incubated for 18 hrs by UPLC analysis. It counts as physicochemical.
Data set [9] can be described thus: Solubility in 100 mM bistrispropane buffer at pH 7.5 incubated for 18 hrs by UPLC analysis. It counts as physicochemical.
Data set [10] in a line: Solubility in 100 mM bistrispropane buffer at pH 8.0 incubated for 18 hrs by UPLC analysis. It counts as physicochemical.

`CC(C)C[C@H](NC(=O)[C@H](CCC(=O)O)NC(=O)[C@H](Cc1cnc[nH]1)NC(=O)[C@H](CC(C)C)NC(=O)[C@H](CCC(=O)O)NC(=O)[C@H](C)NC(=O)[C@H](CO)NC(=O)[C@H](CC(C)C)NC(=O)[C@H](CCCNC(=N)N)NC(=O)CNC(=O)[C@H](CC(C)C)NC(=O)[C@@H](NC(=O)[C@H](C)NC(=O)[C@@H](NC(=O)[C@H](CO)NC(=O)[C@H](CC(C)C)NC(=O)[C@@H]1CCCN1C(=O)[C@@H]1CCCN1C(=O)[C@H](C)NC(=O)[C@H](CCC(=O)O)NC(=O)CCCCCCCCCCCCCCCCC(=O)O)[C@@H](C)O)C(C)C)C(=O)N[C@@H](C)C(=O)N[C@H](C(=O)N[C@@H](CC(C)C)C(=O)N1CCC[C@H]1C(=O)N[C@@H](CCCNC(=N)N)C(=O)N[C@H](C(=O)N[C@@H](CCC(=O)O)C(=O)N[C@H](C(=O)NCC(=O)N1CCC[C@H]1C(=O)N[C@@H](CCC(=O)O)C(=O)N[C@@H](CO)C(=O)N1CCC[C@H]1C(N)=O)[C@@H](C)O)[C@@H](C)O)[C@@H](C)O` ({C18 diacid}-EAPPLSTAVLGRLSAELHELATLPRTETGPESP-NH2): the EC50 is 12 pM in data set [1] and 6 pM in data set [2]. For the same molecule, the solubility at 18 h in data set [3], in [4], in data set [5], in data set [6], in data set [7] and in data set [8] was not below 200 µM each time. Further, the solubility at 18 h in [9] and in data set [10] was not below 200 µM throughout.

As to `CC(C)C[C@H](NC(=O)[C@H](C)NC(=O)[C@@H](NC(=O)[C@H](CO)NC(=O)[C@H](CC(C)C)NC(=O)[C@H](CCC(=O)O)NC(=O)[C@H](CO)NC(=O)[C@H](C)NC(=O)[C@H](CCC(=O)O)NC(=O)CCCCCCCCCCCCCCCCC(=O)O)[C@@H](C)O)C(=O)N[C@@H](C)C(=O)NCC(=O)N[C@@H](CCCNC(=N)N)C(=O)N[C@@H](CC(C)C)C(=O)N[C@@H](CO)C(=O)N[C@@H](C)C(=O)N[C@@H](CCC(=O)O)C(=O)N[C@@H](CC(C)C)C(=O)N[C@@H](Cc1cnc[nH]1)C(=O)N[C@@H](CCC(=O)O)C(=O)N[C@@H](CC(C)C)C(=O)N[C@@H](C)C(=O)N[C@H](C(=O)N[C@@H](CC(C)C)C(=O)N1CCC[C@H]1C(=O)N[C@@H](CCCNC(=N)N)C(=O)N[C@H](C(=O)N[C@@H](CCC(=O)O)C(=O)N[C@H](C(=O)NCC(=O)N1CCC[C@H]1C(=O)N[C@@H](CCC(=O)O)C(=O)N[C@@H](CO)C(=O)N1CCC[C@H]1C(N)=O)[C@@H](C)O)[C@@H](C)O)[C@@H](C)O` ({C18 diacid}-EASELSTALAGRLSAELHELATLPRTETGPESP-NH2), the EC50 is 8 pM in data set [1] and 4 pM in data set [2]. Further, the solubility at 18 h in data set [3], in data set [4], in data set [5], in data set [6], in [7] and in data set [8] was not below 200 µM in each case. Besides, the solubility at 18 h in data set [9] and in data set [10] was not below 200 µM throughout.
